Data on 7 compounds can be found in US4866091A, “Alkanesulfonanilide derivatives, processes for preparation thereof and pharmaceutical composition comprising the same” (Fujisawa Pharmaceutical Co., Ltd., priority 1986, dated 1989).

Assay [1] concerns writhing syndrome induced by acetic acid in mice. The assay can be described thus: Test 2: writhing syndrome induced by acetic acid in mice (analgesic activity). Type of assay: in vivo, male ddY mice. Conditions: Mus musculus. As for the experimental part:
Writhing syndrome induced by acetic acid in mice Ten male ddY mice were used per group. Writhing syndrome was produced by an intraperitoneal injection of 20 ml/kg of 0.6% acetic acid in mice. The animals were observed from 3 to 13 minutes after acetic acid injection, and a total number of writhing episodes was recorded. The drugs were given orally 1 hour before acetic acid injection. The frequency of writhing in the treated animals was compared with that in the control animals.

Assay [2] has as its system pyrexia induced by brewer's yeast in rats. Kind of assay: Test 3: anti-pyretic activity, brewer's yeast-induced pyrexia in rats. The format is in vivo, male Sprague-Dawley rats. Conditions: Rattus norvegicus, oral. As for the experimental part: Anti-pyretic activity Ten male Sprague-Dawley rats were used per group. Pyrexia was induced by SC injection of 10 ml/kg of 5% brewer's yeast suspension. The drugs were given orally […] after yeast injection. Rectal temperature was measured 1 and 2 hours after administration of drugs, and the difference of rectal temperature from that before yeast injection was calculated.

Assay [3] has as its system inflammatory hyperalgesia induced by brewer's yeast in rats. Kind of assay: Test 5: inflammatory hyperalgesia induced by brewer's yeast in rats (analgesic activity). The format is in vivo, male Sprague Dawley rats. As for the experimental part: Inflammatory hyperalgesia induced by brewer's yeast in rats
Ten male Sprague Dawley rats were used per group. 0.1 Ml of 5% brewer's yeast suspended in 0.5% methylcellulose was injected into the right hind paw, The pain threshold was determined 3 hours after yeast injection, by applying pressure to the foot and reading the pressure at which the rat withdrew the foot.
The drugs were given orally 2 hours after yeast infection. The pain threshold in the treated animals was compared with that in the control animals.

Where [4] appears, read: oral, 1 hour before acetic acid injection, number of writhing episodes 3 to 13 minutes after, read-out: ED50.
[5] abbreviates: rectal temperature 1 hour after administration, read-out: ED50 (1 hr).
[6] abbreviates: rectal temperature 2 hours after administration, read-out: ED50 (2 hr).

Like-named read-outs stand apart in the source and are kept apart here.

As for `CC(=O)c1ccc(NS(C)(=O)=O)c(Oc2ccc(F)cc2F)c1` [Example 1, 4'-acetyl-2'-(2,4-difluorophenoxy)methanesulfonanilide], the ED50 is 14 mg/kg in assay [1] (setting [4]), 10 mg/kg in assay [2] (setting [5]) and 6.8 mg/kg in assay [2] (setting [6]).

On to `CS(=O)(=O)Nc1ccc(C#N)cc1Oc1ccc(F)cc1F` [Example 3, 4'-Cyano-2'-(2,4-difluorophenoxy)methanesulfonanilide], for which the ED50 in assay [1] (setting [4]) is 2.4 mg/kg.

Consider `Cc1cc(NS(C)(=O)=O)c(Oc2ccc(F)cc2F)cc1C#N` [Example 20, 4'-Cyano-2'-(2,4-difluorophenoxy)-5'-methylmethanesulfonanilide], for which the ED50 in assay [1] (setting [4]) was 55.8 mg/kg.

Consider `CC(=O)c1ccc(NS(C)(=O)=O)c(Oc2ccc(F)cc2Cl)c1` [Example 25, 4'-Acetyl-2'-(2-chloro-4-fluorophenoxy)methanesulfonanilide], for which the median effective dose (ED50) in assay [1] (setting [4]) amounted to 9.6 mg/kg.

Take `CC(=NNC(N)=O)c1ccc(NS(C)(=O)=O)c(Oc2ccc(F)cc2F)c1` [Example 40, 3'-(2,4-difluorophenoxy)-4'-methanesulfonamidoacetophenone semicarbazone]: the ED50 in assay [1] (setting [4]) stood at 18 mg/kg.

Regarding `CS(=O)(=O)Nc1ccc(C#N)cc1Oc1ccc(F)cc1F.[Na]` [Example 73, 4'-cyano-2'-(2,4-difluorophenoxy)methanesulfonanilide sodium salt], in assay [3] (po), the ED30 is 1.8 mg/kg.

In the case of `COc1ccc2c(c1)c(CC(=O)O)c(C)n2C(=O)c1ccc(Cl)cc1` [Indomethacin, reference compound], the ED30 in assay [3] (oral, 2 hours after yeast injection, pain threshold 3 hours after yeast injection, read-out: ED30) turned out to be 5.1 mg/kg. Also, the ED50 in assay [1] (po) was found to be 1.6 mg/kg; in assay [2] (setting [5]), 4.6 mg/kg; in assay [2] (setting [6]), 2.6 mg/kg.

A word on the ED50: it is the dose at which the effect has come halfway, by size or by number of responders.
